Reference: ChEMBL document CHEMBL1201862, “PubChem BioAssay data set” (2004)
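Compound exposure: 48 hours, 5 concentrations, 96-well plates. The concentration for 50% growth inhibition is given as GI50.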 The source made the active and inactive calls. Rule as the data show it: active = GI50 up to about 1.1 µM and inactive = higher.

Legend:
Assay in all cases: growth of human tumour cells (NCI), 48 h
[1] = system: 786-0
[2] = system: A498
[3] = system: ACHN
[4] = system: BT-549
[5] = system: CAKI-1
[6] = system: DU-145
[7] = system: HCC 2998
[8] = system: HCT-15
[9] = system: HOP-62
[10] = system: Hs-578T
[11] = system: LOX IMVI
[12] = system: MCF7
[13] = system: MDA-N
[14] = system: NCI-H226
[15] = system: NCI/ADR-RES
[16] = system: PC-3
[17] = system: SN12C
[18] = system: T47D
[19] = system: A549
[20] = system: CCRF-CEM
[21] = system: COLO 205
[22] = system: EKVX
[23] = system: HCT-116
[24] = system: HL-60
[25] = system: HOP-92
[26] = system: HT-29
[27] = system: IGROV-1
[28] = system: K562
[29] = system: KM12
[30] = system: M14
[31] = system: MDA-MB-231
[32] = system: MDA-MB-435
[33] = system: MOLT-4
[34] = system: Malme-3M
[35] = system: NCI-H23
[36] = system: NCI-H460
[37] = system: NCI-H522
[38] = system: OVCAR-3
[39] = system: OVCAR-4
[40] = system: OVCAR-5
[41] = system: OVCAR-8
[42] = system: RPMI-8226
[43] = system: RXF 393
[44] = system: SF-268
[45] = system: SF-295
[46] = system: SF-539
[47] = system: SK-MEL-28
[48] = system: SK-MEL-2
[49] = system: SK-MEL-5
[50] = system: SK-OV-3
[51] = system: SNB-19
[52] = system: SNB-75
[53] = system: SR
[54] = system: SW-620
[55] = system: TK-10
[56] = system: U-251
[57] = system: UACC-257
[58] = system: UACC-62
[59] = system: UO-31

**Q.** With `C=C1C(=O)[C@@]23CC1C(O)[C@@H](OC(C)=O)[C@@H]2C1(C)C(OC(C)=O)C[C@@H](OC(C)=O)C(C)(C)[C@@H]1C[C@H]3OC(C)=O` (stereo partly specified) as the compound, how does the GI50 [1] read?
**A.** The GI50 was 5.52 µM (inactive).

**Q.** What about the GI50 [2] of the same compound?
**A.** Its GI50 is > 10 µM (inactive).

**Q.** And the GI50 [3]?
**A.** Its GI50 is > 10 µM (inactive).

**Q.** What about the GI50 [4] of the same compound?
**A.** The GI50 was 1.47 µM (inactive).

**Q.** And the GI50 [5]?
**A.** Its GI50 is 6.27 µM (inactive).

**Q.** And the GI50 [6]?
**A.** The GI50 was > 10 µM (inactive).

**Q.** And the GI50 [7]?
**A.** The GI50 was > 10 µM (inactive).

**Q.** What about the GI50 [8] of the same compound?
**A.** The GI50 was 2600 nM.

**Q.** What about the GI50 [9] of the same compound?
**A.** Its GI50 is > 10 µM (inactive).

**Q.** What about the GI50 [10] of the same compound?
**A.** Its GI50 is 2.9 µM (inactive).

**Q.** And the GI50 [11]?
**A.** Its GI50 is 6.35 µM (inactive).

**Q.** And the GI50 [12]?
**A.** The GI50 was 2.58 µM (inactive).

**Q.** What about the GI50 [13] of the same compound?
**A.** The GI50 was 3.85 µM (inactive).

**Q.** And the GI50 [14]?
**A.** The GI50 was > 10 µM (inactive).

**Q.** And the GI50 [15]?
**A.** Its GI50 is > 10 µM (inactive).

**Q.** What about the GI50 [16] of the same compound?
**A.** Its GI50 is > 10 µM (inactive).

**Q.** And the GI50 [17]?
**A.** The GI50 was 3.77 µM (inactive).

**Q.** And the GI50 [18]?
**A.** The GI50 was 2.12 µM (inactive).

**Q.** Which GI50 [1] does the source give for `CC(=O)C(C)CCOC1(C)OCCC1C` (stereo unspecified) here?
**A.** The GI50 was > 100 µM (inactive).

**Q.** And the GI50 [2]?
**A.** Its GI50 is > 100 µM (inactive).

**Q.** And the GI50 [19]?
**A.** Its GI50 is > 100 µM (inactive).

**Q.** And the GI50 [3]?
**A.** The GI50 was > 100 µM (inactive).

**Q.** And the GI50 [4]?
**A.** Its GI50 is > 100 µM (inactive).

**Q.** What about the GI50 [5] of the same compound?
**A.** Its GI50 is > 100 µM (inactive).

**Q.** And the GI50 [20]?
**A.** The GI50 was > 100 µM (inactive).

**Q.** And the GI50 [21]?
**A.** Its GI50 is 65 µM (inactive).

**Q.** What about the GI50 [6] of the same compound?
**A.** The GI50 was > 100 µM (inactive).

**Q.** And the GI50 [22]?
**A.** The GI50 was > 100 µM (inactive).

**Q.** And the GI50 [7]?
**A.** Its GI50 is > 100 µM (inactive).

**Q.** And the GI50 [23]?
**A.** Its GI50 is > 100 µM (inactive).

**Q.** And the GI50 [8]?
**A.** Its GI50 is over 100000 nM.

**Q.** What about the GI50 [24] of the same compound?
**A.** Its GI50 is > 100 µM (inactive).

**Q.** What about the GI50 [9] of the same compound?
**A.** The GI50 was > 100 µM (inactive).

**Q.** And the GI50 [25]?
**A.** The GI50 was > 100 µM (inactive).

**Q.** And the GI50 [26]?
**A.** The GI50 was > 100 µM (inactive).

**Q.** What about the GI50 [10] of the same compound?
**A.** Its GI50 is > 100 µM (inactive).

**Q.** What about the GI50 [27] of the same compound?
**A.** Its GI50 is > 100 µM (inactive).

**Q.** What about the GI50 [28] of the same compound?
**A.** Its GI50 is > 100 µM (inactive).

**Q.** What about the GI50 [29] of the same compound?
**A.** The GI50 was > 100 µM (inactive).

**Q.** What about the GI50 [11] of the same compound?
**A.** Its GI50 is > 100 µM (inactive).

**Q.** And the GI50 [30]?
**A.** The GI50 was > 100 µM (inactive).

**Q.** What about the GI50 [12] of the same compound?
**A.** The GI50 was > 100 µM (inactive).

**Q.** What about the GI50 [31] of the same compound?
**A.** Its GI50 is > 100 µM (inactive).

**Q.** And the GI50 [32]?
**A.** The GI50 was > 100 µM (inactive).

**Q.** And the GI50 [33]?
**A.** Its GI50 is > 100 µM (inactive).

**Q.** What about the GI50 [34] of the same compound?
**A.** Its GI50 is > 100 µM (inactive).

**Q.** What about the GI50 [14] of the same compound?
**A.** The GI50 was > 100 µM (inactive).

**Q.** And the GI50 [35]?
**A.** The GI50 was > 100 µM (inactive).

**Q.** And the GI50 [36]?
**A.** Its GI50 is > 100 µM (inactive).

**Q.** What about the GI50 [37] of the same compound?
**A.** The GI50 was > 100 µM (inactive).

**Q.** And the GI50 [15]?
**A.** Its GI50 is > 100 µM (inactive).

**Q.** And the GI50 [38]?
**A.** The GI50 was > 100 µM (inactive).

**Q.** What about the GI50 [39] of the same compound?
**A.** The GI50 was > 100 µM (inactive).

**Q.** And the GI50 [40]?
**A.** Its GI50 is > 100 µM (inactive).

**Q.** And the GI50 [41]?
**A.** Its GI50 is > 100 µM (inactive).

**Q.** And the GI50 [16]?
**A.** The GI50 was > 100 µM (inactive).

**Q.** And the GI50 [42]?
**A.** Its GI50 is > 100 µM (inactive).

**Q.** And the GI50 [43]?
**A.** Its GI50 is > 100 µM (inactive).

**Q.** And the GI50 [44]?
**A.** Its GI50 is > 100 µM (inactive).

**Q.** And the GI50 [45]?
**A.** Its GI50 is > 100 µM (inactive).

**Q.** And the GI50 [46]?
**A.** The GI50 was > 100 µM (inactive).

**Q.** And the GI50 [47]?
**A.** The GI50 was > 100 µM (inactive).

**Q.** What about the GI50 [48] of the same compound?
**A.** Its GI50 is > 100 µM (inactive).

**Q.** And the GI50 [49]?
**A.** Its GI50 is > 100 µM (inactive).

**Q.** What about the GI50 [50] of the same compound?
**A.** Its GI50 is > 100 µM (inactive).

**Q.** What about the GI50 [17] of the same compound?
**A.** The GI50 was > 100 µM (inactive).

**Q.** And the GI50 [51]?
**A.** The GI50 was > 100 µM (inactive).

**Q.** And the GI50 [52]?
**A.** The GI50 was > 100 µM (inactive).

**Q.** And the GI50 [53]?
**A.** Its GI50 is > 100 µM (inactive).

**Q.** And the GI50 [54]?
**A.** Its GI50 is > 100 µM (inactive).

**Q.** What about the GI50 [18] of the same compound?
**A.** Its GI50 is > 100 µM (inactive).

**Q.** What about the GI50 [55] of the same compound?
**A.** The GI50 was > 100 µM (inactive).

**Q.** What about the GI50 [56] of the same compound?
**A.** Its GI50 is > 100 µM (inactive).

**Q.** What about the GI50 [57] of the same compound?
**A.** Its GI50 is > 100 µM (inactive).

**Q.** And the GI50 [58]?
**A.** Its GI50 is > 100 µM (inactive).

**Q.** What about the GI50 [59] of the same compound?
**A.** The GI50 was > 100 µM (inactive).
